Experiment [1] relates to Sprague-Dawley rats. The experiment is described as follows: Spontaneous sleep apnea (apnea index) by plethysmography in freely moving rats. In kind it is in vivo. The conditions noted are these: rat; for breaths with long duration in typical 6-hour recordings (FIG. 1A): vs vehicle recording; for time dependence of apnea suppression during the 6-hour recording period: NREM and REM sleep; for degree of apnea suppression, Δ^9THC compared with oleamide: highest dose (10.0 mg/kg). As for the experimental part:
These recoding and data analysis methods have been described in detail elsewhere [Carley and Radulovacki (Chest., 115: 1397 (1999)].
Adult, male Sprague-Dawley rats (Sasco-King, Wilmington, Mass.; 11 per test group; 300 g) were maintained on a 12-hour light (08:00-20:00 hour)/12-hour dark (20:00-08:00 hour) cycle for one week, housed in individual cages and given ad libitum access to food and water. Following the one week of acclimatization, animals were subjected to the following surgical procedures.
(§1) Δ^9THC (dronabinol, Roxane Laboratories, Columbus, Ohio) was dissolved in DMSO: oleamide (ICN Biomedicals, Aurora, Ohio) was suspended in peanut oil with sonication for 20 minutes; and serotonin was dissolved in saline. The study was a fully nested, repeated measures crossover design, such that each animal received each of 12 intraperitoneal injections (1 ml/kg) exactly one time: vehicle alone (saline, DMSO, or peanut oil); Δ^9THC alone (0.1, 1.0, or 10.0 mg/kg); oleamide alone (0.1, 1.0, or 10.0 mg/kg); serotonin alone (0.79 mg/kg); or combination injection (0.1 mg/kg Δ^9THC followed, after 15 minutes, by 0.79 mg/kg serotonin or 0.1 mg/kg oleamide followed by 0.79 mg/kg serotonin). Each injection was made 15 minutes prior to polygraphic recording for 6 hours (10:00-16:00). Successive recordings for an individual animal were separated by at least three days and the treatments were given in random order.
(§2) Respiration was recorded by placing each animal, unrestrained, inside a single chamber plethysmograph (PLYUN1R/U; Buxco Electronics, Sharon, Conn.; dimension 6 in.×10 in.×6 in.) ventilated with a bias flow of fresh room air at a rate of 2 L/min. A cable plugged onto the animal's connector and passed through a sealed port was used to carry the bioelectrical activity from the head implant.
Sleep and waking states were assessed using the biparietal EEG and nuchal EMG signals on 10-second epochs as described by Bennington et al. [Sleep 17:28-36 (1994)]. This software discriminated wakefulness (W) as a high frequency low amplitude EEG with a concomitant high EMG tone, NREM sleep by increased spindle and […] activity together with decreased EMG tone, and REM sleep by a low ratio of a delta to theta activity and an absence of EMG tone. Sleep efficiency was measured as the percentage of total recorded epochs staged as NREM or REM sleep.
(§3) An accepted physiological animal model [rat; Monti, et al., Pharamcol. Biochem. Behav., 51:125-131; (1995)] of sleep apnea was used to assess the effects of a cannabinoid receptor agonist activity and/or agents having cannabimimetic activity. More specifically, sleep apneas, defined as cessation of respiratory effort for at least 2.5 seconds, were scored for each recording session and were associated with the stage in which they occurred: NREM or REM sleep. The duration requirement of 2.5 seconds represented at least 2 “missed” breaths, which is therefore analogous to a 10 second apnea duration requirement in humans, which also reflects 2-3 missed breaths. The events detected represent central apneas because decreased ventilation associated with obstructed or occluded airways would generate an increased plethysmographic signal, rather than a pause. An apnea index (AI), defined as apneas per hour in a stage was separately determined for NREM and REM sleep. The effects of sleep stage (NREM vs. REM) and injection (control vs. test compounds) were tested using ANOVA with repeated measures. Multiple comparisons were controlled using Fisher's protected least significant difference (PLSD). In addition, the timing and volume of each breath were scored by automatic analysis (Experimenters' Workbench; Datawave Technologies, Longmont, Colo.). For each animal the mean respiratory rate (RR) and minute ventilation (MV) was computed for W throughout the 6 hour control recording and used as a baseline to normalize respiration during sleep and during test compound administration in that animal. […]

For a further experiment, the target named is CB2 receptors (Homo sapiens, UniProt P34972). The conditions noted are these: cited from earlier work.
Sequence of CB2 receptors (P34972 whole entry): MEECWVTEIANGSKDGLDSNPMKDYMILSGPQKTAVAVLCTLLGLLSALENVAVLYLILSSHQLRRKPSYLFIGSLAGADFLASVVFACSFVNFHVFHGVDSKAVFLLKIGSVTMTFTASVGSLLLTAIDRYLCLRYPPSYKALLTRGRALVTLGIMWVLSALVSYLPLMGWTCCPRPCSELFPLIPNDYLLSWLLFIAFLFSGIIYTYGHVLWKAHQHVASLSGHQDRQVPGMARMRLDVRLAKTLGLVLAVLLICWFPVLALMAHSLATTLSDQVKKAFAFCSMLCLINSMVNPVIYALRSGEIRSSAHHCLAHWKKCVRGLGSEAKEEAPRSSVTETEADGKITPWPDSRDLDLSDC
Another experiment deals with CB1 receptors (Homo sapiens, UniProt P21554). The settings on record: cited from earlier work.
Sequence of CB1 receptors (P21554 whole entry): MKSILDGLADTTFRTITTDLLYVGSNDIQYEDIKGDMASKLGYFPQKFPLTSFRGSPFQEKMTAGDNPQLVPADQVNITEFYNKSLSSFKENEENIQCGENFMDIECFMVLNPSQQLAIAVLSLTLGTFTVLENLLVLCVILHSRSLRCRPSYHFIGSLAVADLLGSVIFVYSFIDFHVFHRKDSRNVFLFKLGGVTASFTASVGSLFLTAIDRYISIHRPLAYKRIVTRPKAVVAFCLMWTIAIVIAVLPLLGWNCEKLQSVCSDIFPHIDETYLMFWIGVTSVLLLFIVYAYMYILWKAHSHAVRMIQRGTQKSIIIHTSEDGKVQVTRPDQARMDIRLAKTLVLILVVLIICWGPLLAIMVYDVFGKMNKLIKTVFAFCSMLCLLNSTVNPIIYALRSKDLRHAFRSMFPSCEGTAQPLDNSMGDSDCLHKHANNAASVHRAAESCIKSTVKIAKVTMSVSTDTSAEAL
The test system of experiment [2] is Sprague-Dawley rats. As to the kind of experiment: Sleep/wake architecture by EEG/EMG recording. In kind it is in vivo. The settings on record: rat, intraperitoneal; for sleep/wake architecture: 6 hour recording. As to the method:
Acclimatized animals were anesthetized for the implantation of cortical electrodes for electroencephalogram (EEG) recording and neck muscle electrodes for electromyogram (EMG) recording using a mixture of ketamine (Vedco, Inc., St. Joseph, Mo.; 80 mg/ml) and xylazine (Vedco, Inc., St. Joseph, Mo.; 5 mg/ml; 4:1, volume/volume) at a volume of 1 ml/kg body weight. The surface of the skull was exposed surgically and cleaned with a 20% solution of hydrogen peroxide followed by, a solution of 95% isopropyl alcohol. Next, a dental preparation of sodium fluoride: (Flura-GEL®, Saslow Dental, Mt. Prospect, Ill.) was applied to harden the skull above the parietal cortex and allowed to remain in place for 5 minutes. The fluoride mixture was then removed from the skull above the parietal cortex. The EEG electrodes consisting of four stainless steel machine screws, having leads attached thereto, were threaded into the skull to rest on the dura over the parietal cortex. A thin layer of Justi® resin cement (Saslow Dental, Mt. Prospect, Ill.) was applied to cover the screw heads (of screws implanted in the skull) and surrounding skull to further promote the adhesion of the implant. EMG electrodes consisting of two ball-shaped wires were inserted into the bilateral neck musculature. All leads (i.e., EEG and EMG leads) were soldered to a miniature connector (39F1401, Newark Electronics, Chicago, Ill.). Lastly, the entire assembly was fixed to the skull with dental cement.
as §1
Sleep and waking states were assessed using the biparietal EEG and nuchal EMG signals on 10-second epochs as described by Bennington et al. [Sleep 17:28-36 (1994)]. […] Sleep efficiency was measured as the percentage of total recorded epochs staged as NREM or REM sleep.

For experiment [3], the system named is Sprague-Dawley rats. The experiment is described as follows: Respiratory rate, minute ventilation and tidal volume by plethysmography. Format: in vivo. The conditions noted are these: rat; for average respiratory rate (RR) / respiratory minute ventilation: intraperitoneal; for respiratory minute ventilation: compared with the effects on RR. As to the method: as §1, §2
The bias flow of room air (2 l/min) was more than one order of magnitude greater than the alveolar ventilation of the rat, ensuring that no rebreathing occurred. Thermal fluctuations associated with tidal respiration induced changes in plethysmograph pressure proportional to tidal volume. Plethysmograph pressure was monitored using a Validyne DP45-14 differential pressure transducer (±2 cm H20). Prior to each experimental study, the plethysmograph was calibrated for tidal volume using the method described by Epstein et al. (J. Appl. Physiol., 49, 1107 (1980)). An adaptive threshold algorithm (Datawave Systems, Longmont, Colo.) was used to measure the duration and tidal amplitude of each breath in each recording. From these values, instantaneous respiratory rate (RR) and minute ventilation (MV) were computed on a breath by breath basis. Respiratory variability was assessed by calculating the standard deviations of RR and MV for each 10 second recording epoch. These standard deviations were then averaged separately for each sleep/wake state.
as §3

For experiment [4], the system named is Sprague-Dawley rats. The experiment is described as follows: Serotonin-induced apnea during REM sleep. Format: in vivo. The conditions noted are these: rat; for serotonin-induced increase in REM sleep apnea: pretreatment with 0.1 mg/kg intraperitoneal 15 minutes before 0.79 mg/kg serotonin; for frequency of apnea during REM sleep: intraperitoneal, serotonin 0.79 mg/kg alone vs saline. As to the method: as §1, §2
An accepted physiological animal model [rat; Monti, et al., Pharamcol. Biochem. Behav., 51:125-131; (1995)] of sleep apnea was used to assess the effects of a cannabinoid receptor agonist activity and/or agents having cannabimimetic activity. More specifically, sleep apneas, defined as cessation of respiratory effort for at least 2.5 seconds, were scored for each recording session and were associated with the stage in which they occurred: NREM or REM sleep. The duration requirement of 2.5 seconds represented at least 2 “missed” breaths, which is therefore analogous to a 10 second apnea duration requirement in humans, which also reflects 2-3 missed breaths. The events detected represent central apneas because decreased ventilation associated with obstructed or occluded airways would generate an increased plethysmographic signal, rather than a pause. An apnea index (AI), defined as apneas per hour in a stage was separately determined for NREM and REM sleep. The effects of sleep stage (NREM vs. REM) and injection (control vs. test compounds) were tested using ANOVA with repeated measures. Multiple comparisons were controlled using Fisher's protected least significant difference (PLSD). In addition, the timing and volume of each breath were scored by automatic analysis (Experimenters' Workbench; Datawave Technologies, Longmont, Colo.). […]

Where [5] appears, read: intraperitoneal, 0.1 mg/kg, administered alone.
[6] abbreviates: intraperitoneal, 1.0 mg/kg, vs vehicle.
Where [7] appears, read: intraperitoneal, 10.0 mg/kg, vs vehicle.
[8] abbreviates: 0.1-10.0 mg/kg, sleep/wake states.

Molecules are shown by their SMILES.

Take `CCCCCCCC/C=C\CCCCCCCC(N)=O` [oleamide]: the “breaths with long duration in typical 6-hour recordings (FIG. 1A)” value in the experiment on Sprague-Dawley rats [1] (10.0 mg/kg) is recorded as “clear reduction in breaths with durations exceeding 1.5 seconds”. The “apnea expression during REM sleep” value is on record as “neither Δ^9THC nor oleamide had any effect” with Sprague-Dawley rats [1] (setting [5]), “suppressed apnea expression” in the experiment with Sprague-Dawley rats [1] (setting [6]) and “suppressed apnea expression” in the experiment with Sprague-Dawley rats [1] (setting [7]). In addition, the “frequency of apneas during NREM sleep” value in the experiment on Sprague-Dawley rats [1] (intraperitoneal, 0.1 mg/kg, vs vehicle) is given as “suppressed apnea expression”; with Sprague-Dawley rats [1] (setting [6]), “suppressed apnea expression”; in the experiment with Sprague-Dawley rats [1] (setting [7]), “suppressed apnea expression”. In addition, the “time dependence of apnea suppression during the 6-hour recording period” value with Sprague-Dawley rats [1] (intraperitoneal) is “persisted throughout the 6 hour recording interval”. Besides, in the experiment on Sprague-Dawley rats [1] (intraperitoneal), the “degree of apnea suppression, Δ^9THC compared with oleamide” value is recorded as “equivalent”. In addition, the “binding affinity to CB2 receptors” value on CB2 receptors is “does not appear to bind with high affinity”. Besides, the “binding affinity to CB1 receptors” value at CB1 receptors is listed as “does not appear to bind with high affinity”. In addition, the sleep/wake architecture result in the experiment on Sprague-Dawley rats [2] (0.1 mg/kg) is recorded as “increased REM sleep with decreased wakefulness”; in the experiment on Sprague-Dawley rats [2] (1.0 mg/kg), “increased REM sleep with decreased wakefulness”; in the experiment on Sprague-Dawley rats [2] (10.0 mg/kg) it was “increased NREM sleep with decreased REM sleep”. Besides, the “respiratory rate (RR), statistical significance of elevation” value in the experiment with Sprague-Dawley rats [3] (10.0 mg/kg vs. vehicle, p=0.03) is “achieved statistical significance only during wakefulness”. The “average respiratory rate (RR)” value in the experiment with Sprague-Dawley rats [3] (10.0 mg/kg, 6-hour recording) is given as “tended to increase”; with Sprague-Dawley rats [3] (setting [8]) it was “dose dependent elevation of RR”. Further, the respiratory minute ventilation entry with Sprague-Dawley rats [3] (0.1-10.0 mg/kg) is reported as “Equivalent effects”. The “serotonin-induced increase in REM sleep apnea” value in the experiment with Sprague-Dawley rats [4] was “completely blocked”.

For `CCCCCc1cc(O)c2c(c1)OC(C)(C)[C@@H]1CCC(C)=C[C@@H]21` [Δ^9THC, 9-tetrahydrocannabinol], in the experiment on Sprague-Dawley rats [1] (10.0 mg/kg), the “breaths with long duration in typical 6-hour recordings (FIG. 1A)” value is given as “clear reduction in breaths with durations exceeding 1.5 seconds”. The “apnea expression during REM sleep” value in the experiment on Sprague-Dawley rats [1] (setting [5]) is given as “neither Δ^9THC nor oleamide had any effect”; in the experiment on Sprague-Dawley rats [1] (setting [7]), “significant decrease”. The “frequency of apneas during NREM sleep” value with Sprague-Dawley rats [1] (setting [6]) and in the experiment on Sprague-Dawley rats [1] (setting [7]) was “reduced the frequency of apneas” in each case. The “spontaneous apnea during all sleep stages” value with Sprague-Dawley rats [1] (intraperitoneal, 0.1-10.0 mg/kg, 6-hour recording, vs vehicle) was “strongly suppressed spontaneous apnea”. For the same molecule, the “time dependence of apnea suppression during the 6-hour recording period” value in the experiment on Sprague-Dawley rats [1] (intraperitoneal) is recorded as “not time-dependent”. Moreover, the “degree of apnea suppression, Δ^9THC compared with oleamide” value with Sprague-Dawley rats [1] (intraperitoneal) is listed as “equivalent”. The “change in REM sleep expression” value with Sprague-Dawley rats [2] (highest dose tested (10.0 mg/kg), p=0.0002) is recorded as −66%. In addition, the “average respiratory rate (RR)” value was “significantly reduced in all sleep/wake states” in the experiment on Sprague-Dawley rats [3] (10.0 mg/kg, 6-hour recording) and “dose dependent reduction in RR” in the experiment on Sprague-Dawley rats [3] (setting [8]). For the same molecule, the respiratory minute ventilation entry in the experiment with Sprague-Dawley rats [3] (0.1-10.0 mg/kg) is “Equivalent effects”. Moreover, in the experiment on Sprague-Dawley rats [4], the “serotonin-induced increase in REM sleep apnea” value is given as “completely blocked”.

Regarding `NCCc1c[nH]c2ccc(O)cc12` [serotonin], the “frequency of apnea during REM sleep” value was “significant increase in the frequency of apnea” in the experiment on Sprague-Dawley rats [4] and “significant increase in REM sleep-apnea” in the experiment with Sprague-Dawley rats [4] (listed as Serotonin).

(Values after patent US8207230B2, “Functional role for cannabinoids in autonomic stability during sleep” (The Board of Trustees of the University of Illinois, priority 2001, dated 2012).)
